The record followed here is patent US9708267B2, “Activators of human pyruvate kinase” (The United States of America, as represented by the …, priority 2010, dated 2017).

The structures appear in SMILES notation. Where two headings read alike, the source gives them in different places.

The AC50 is the concentration at which the activity in the assay is half-maximal.

Format in all cases: biochemical
For one assay, the target named is hPK, M2 (Homo sapiens, UniProt P14618). In words: luminescent pyruvate kinase-luciferase coupled assay (qHTS). The settings on record: for AC50: 0.1 mM ADP, 0.5 mM PEP; for activation at 57 µM / hPK, M2 Max. Res.: % activation at 57 μM of compound; for activation at 57 µM: read-out: hPK, M2 Max. Res.; for Emax: maximum response (activation), read-out: Max. Res. The method, then:
AC50 values were determined utilizing the luminescent pyruvate kinase-luciferase coupled assay (Inglese, J. et al, Quantitative high-throughput screening: a titration-based approach that efficiently identifies biological activities in large chemical libraries. Proc. Natl. Acad. Sci. U.S.A. 2006, 103, 11473-11478).
Luminescent Pyruvate Kinase-Luciferase Coupled Assay.
(§1) Production of a luminescent signal based on the generation of ATP by pyruvate kinase was determined by using the ATP-dependent enzyme firefly luciferase. Three μL of substrate mix (at r.t.) in assay buffer (50 mM imidazole pH 7.2, 50 mM KCl, 7 mM MgCl2, 0.01% tween 20, 0.05% BSA) was dispensed into Kalypsys (San Diego, Calif., USA) white solid bottom 1,536 well microtiter plates using a bottle-valve solenoid-based dispenser (Kalypsys). The final concentrations of substrates in the assay were 0.1 mM ADP and 0.5 mM PEP. Twenty-three nL of compound in DMSO were delivered with a 1,536-pin array tool, and 1 μL of enzyme mix in assay buffer (final concentration, 0.1 nM pyruvate kinase, 50 mM imidazole pH 7.2, 0.05% BSA, 4° C.) was added. Microtiter plates were incubated at r.t. for 1 hour and 2 uL of luciferase detection mix (Kinase-Glo from Promega, Madison, Wis., USA) at 4° C. protected from light, was added and luminescence was read with a ViewLux (Perkin Elmer, Waltham, Mass., USA) using a 2 second exposure/plate (with 2× binning). The final concentration of DMSO was 0.5% and found not to affect the assay signal.
Data was normalized for AC50 values to control columns containing uninhibited enzyme (n), and AC100 inhibition (i) according the following equation: Activation (%)=[(c−n)/(n−i)]*100 where c=compound, n=DMSO neutral, i=no enzyme control. A % activity of 100% is approximately a 2-fold increase over basal assay signal (% Activation by FBP was variable but averaged 100%). Monitoring of activation was accomplished using enzyme at 3× the final concentration.
All compounds were screened using a qHTS approach, where compounds are assayed using at least seven concentrations to generate concentration-response curves for every compounds. Briefly, qHTS uses an inter-plate dilution method where the first plate contains the highest concentration of a set of compounds in DMSO, while subsequent plates contain the same compounds in the same well locations, but at successive lower concentrations. Using the protocol outlined above, the rate was calculated as a plate throughput of 18 plates/hr or approximately 7 samples/sec on the Kalypsys robotic system which means that a 7 point CRC was obtained every second on the robotic system.
(In general: In qHTS, concentration-response curves come from the screen itself.)

The target in the next assay is PKL (Homo sapiens, UniProt P30613). In words: luminescent pyruvate kinase-luciferase coupled assay, PKL isoform. To be noted: same assay system as for PKM2. The protocol:
as §1
(§2) The same assay system was utilized to examine the activity of compound 4 and all related analogs versus PKL, PKM1 and PKR pyruvate kinase isoforms. No activity for any of the compounds were found against PKL, PKM1, or PKR.

The next assay has as its target PKM1 (Homo sapiens, UniProt P14618). In words: luminescent pyruvate kinase-luciferase coupled assay, PKM1 isoform. The settings on record: same assay system as for PKM2. The protocol:
as §1, §2

The next assay has as its target PKR (Homo sapiens, UniProt P30613). In words: luminescent pyruvate kinase-luciferase coupled assay, PKR isoform. The settings on record: same assay system as for PKM2. The protocol: as §1, §2
The mark [1] stands for this setting: Table 1, mean of three replicate experiments, read-out: hPK, M2 AC50.
[2] abbreviates: Table 1, mean of three replicate experiments.
Where [3] appears, read: Table 2, mean of three replicate experiments.
[4] abbreviates: Table 3, mean of three replicate experiments.
Where [5] appears, read: Table 2, mean of three replicate experiments, read-out: hPK, M2 AC50.
[6] abbreviates: Table 3, mean of three replicate experiments, read-out: hPK, M2 AC50.

Chain of hPK, M2 (P14618 whole entry): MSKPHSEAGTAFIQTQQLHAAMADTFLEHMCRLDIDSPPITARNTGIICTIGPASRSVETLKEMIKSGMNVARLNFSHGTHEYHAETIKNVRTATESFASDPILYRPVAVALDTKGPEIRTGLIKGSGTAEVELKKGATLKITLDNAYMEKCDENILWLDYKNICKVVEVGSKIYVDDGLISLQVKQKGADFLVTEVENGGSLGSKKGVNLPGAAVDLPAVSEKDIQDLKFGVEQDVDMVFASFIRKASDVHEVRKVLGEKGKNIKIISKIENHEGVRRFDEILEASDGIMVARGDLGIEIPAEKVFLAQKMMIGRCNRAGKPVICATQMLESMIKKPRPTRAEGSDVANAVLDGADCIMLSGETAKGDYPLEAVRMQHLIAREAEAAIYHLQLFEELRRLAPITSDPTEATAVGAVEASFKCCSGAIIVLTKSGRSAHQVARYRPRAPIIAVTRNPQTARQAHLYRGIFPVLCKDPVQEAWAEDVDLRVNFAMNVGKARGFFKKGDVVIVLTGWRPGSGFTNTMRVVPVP
Chain of PKM1 (P14618 1-531 isoform P14618-2): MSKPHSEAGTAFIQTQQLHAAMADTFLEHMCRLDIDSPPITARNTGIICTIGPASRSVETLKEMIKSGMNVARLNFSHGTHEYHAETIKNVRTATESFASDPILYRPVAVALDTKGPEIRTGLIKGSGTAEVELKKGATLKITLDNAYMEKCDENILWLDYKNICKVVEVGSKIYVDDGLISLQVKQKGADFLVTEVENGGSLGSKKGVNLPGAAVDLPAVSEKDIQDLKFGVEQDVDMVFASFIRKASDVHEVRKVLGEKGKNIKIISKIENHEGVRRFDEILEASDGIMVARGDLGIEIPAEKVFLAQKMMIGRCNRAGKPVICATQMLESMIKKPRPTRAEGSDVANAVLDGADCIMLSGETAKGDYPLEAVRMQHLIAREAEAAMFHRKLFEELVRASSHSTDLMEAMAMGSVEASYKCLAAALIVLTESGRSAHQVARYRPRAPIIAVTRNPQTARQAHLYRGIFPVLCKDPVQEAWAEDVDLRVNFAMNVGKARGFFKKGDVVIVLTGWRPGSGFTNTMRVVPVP
Chain of PKL (P30613 1-543 isoform P30613-2): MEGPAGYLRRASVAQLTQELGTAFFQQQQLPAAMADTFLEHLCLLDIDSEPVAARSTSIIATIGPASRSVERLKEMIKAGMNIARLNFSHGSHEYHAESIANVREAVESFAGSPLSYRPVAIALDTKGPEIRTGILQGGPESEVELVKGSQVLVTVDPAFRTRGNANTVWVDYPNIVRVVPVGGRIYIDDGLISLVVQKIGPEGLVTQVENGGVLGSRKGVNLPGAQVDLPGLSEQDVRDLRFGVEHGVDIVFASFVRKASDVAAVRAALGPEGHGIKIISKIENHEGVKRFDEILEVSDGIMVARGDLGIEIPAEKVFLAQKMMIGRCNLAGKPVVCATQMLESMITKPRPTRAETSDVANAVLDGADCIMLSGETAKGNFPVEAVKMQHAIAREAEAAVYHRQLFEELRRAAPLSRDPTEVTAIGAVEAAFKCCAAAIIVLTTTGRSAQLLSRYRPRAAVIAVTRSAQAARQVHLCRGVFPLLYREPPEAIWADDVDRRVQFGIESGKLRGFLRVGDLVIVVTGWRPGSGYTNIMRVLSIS
Chain of PKR (P30613 whole entry, canonical isoform): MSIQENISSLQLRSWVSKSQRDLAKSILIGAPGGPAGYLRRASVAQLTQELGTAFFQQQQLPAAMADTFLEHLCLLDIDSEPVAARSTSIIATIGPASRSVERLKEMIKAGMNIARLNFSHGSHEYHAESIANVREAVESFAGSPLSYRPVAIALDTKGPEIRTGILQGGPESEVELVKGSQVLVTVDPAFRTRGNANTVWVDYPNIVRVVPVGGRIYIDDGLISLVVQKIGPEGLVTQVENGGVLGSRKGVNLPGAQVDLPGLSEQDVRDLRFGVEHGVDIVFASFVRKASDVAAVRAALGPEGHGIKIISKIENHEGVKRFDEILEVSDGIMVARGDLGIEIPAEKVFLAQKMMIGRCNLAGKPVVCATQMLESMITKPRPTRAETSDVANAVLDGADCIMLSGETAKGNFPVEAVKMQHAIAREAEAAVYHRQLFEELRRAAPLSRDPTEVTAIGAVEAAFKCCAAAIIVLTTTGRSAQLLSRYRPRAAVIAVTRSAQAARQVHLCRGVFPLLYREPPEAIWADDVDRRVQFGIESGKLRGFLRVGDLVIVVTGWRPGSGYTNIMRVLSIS

For `Cc1ccc(NS(=O)(=O)c2ccc3c(c2)CCCC(=O)N3)cc1C` [Compound 6, N-(3,4-dimethylphenyl)-2-oxo-2,3,4,5-tetrahydro-1H-benzo[b]azepine-7-sulfonamide], the AC50 at hPK, M2 (setting [1]) is 18 µM. For the same molecule, the activation at 57 µM on hPK, M2 (setting [2]) came to 66%.
As for `Cc1ccc(Cl)cc1NS(=O)(=O)c1cc2c(cc1F)NC(=O)CC2` [Compound 48, N-(5-chloro-2-methylphenyl)-7-fluoro-2-oxo-1,2,3,4-tetrahydroquinoline-6-sulfonamide], on hPK, M2 (Table 4, read-out: AC50), the AC50 amounted to 4.61 µM. The Emax at hPK, M2 (Table 4) was 94.6%.
As for `Cc1ccc(NS(=O)(=O)c2ccc3c(c2)n(C)c(=O)n3C)cc1C` [Compound 10, N-(3,4-dimethylphenyl)-1,3-dimethyl-2-oxo-2,3-dihydro-1H-benzo[d]imidazole-5-sulfonamide], the AC50 at hPK, M2 (setting [1]) worked out at 1.8 µM. Further, at hPK, M2 (setting [2]), the activation at 57 µM is 100%.
For the molecule `Cc1ccc(NS(=O)(=O)c2ccc3c(c2)CCC(=O)N3)cc1C` [Compound 4, N-(3,4-dimethylphenyl)-2-oxo-1,2,3,4-tetrahydroquinoline-6-sulfonamide], on hPK, M2 (setting [1]), the AC50 stood at 0.65 µM. In addition, the activation at 57 µM at hPK, M2 (setting [2]) turned out to be 104%. Besides, the “hPK, M2 Max. Res.” value on hPK, M2 (setting [3]) is 104%; at hPK, M2 (setting [4]) it was 104%. Besides, the “activity against PKL” value at PKL is on record as “No activity”. For the same molecule, the “activity against PKM1” value at PKM1 is reported as “No activity”. Moreover, at PKR, the “activity against PKR” value is “No activity”.
For `Cc1ccc(NS(=O)(=O)c2cc3c(cc2N[C@@H](C)CO)NC(=O)CC3)cc1Cl` [Compound 71, (S)—N-(3-chloro-4-methylphenyl)-7-(l-hydroxypropan-2-ylamino)-2-oxo-1,2,3,4-tetrahydroquinoline-6-sulfonamide], on hPK, M2 (Table 4, read-out: AC50), the AC50 was 0.08 µM. Also, on hPK, M2 (Table 4), the Emax amounted to 124%.
As to `CC(=O)N1CCc2cc(S(=O)(=O)Nc3ccc(C)c(C)c3)ccc21` [Compound 11, 1-acetyl-N-(3,4-dimethylphenyl)indoline-5-sulfonamide], the AC50 on hPK, M2 (setting [1]) stood at 1.8 µM. In addition, the activation at 57 µM at hPK, M2 (setting [2]) was 65%.
For `Cc1c(Cl)cccc1NS(=O)(=O)c1cc2c(cc1Cl)CCC(=O)N2` [Compound 59, 6-chloro-N-(3-chloro-2-methylphenyl)-2-oxo-1,2,3,4-tetrahydroquinoline-7-sulfonamide], the AC50 on hPK, M2 (Table 4, read-out: AC50) is 1.16 µM. In addition, the Emax on hPK, M2 (Table 4) came to 109%.
As for `COc1ccc(NS(=O)(=O)c2ccc3c(c2)CCC(=O)N3)cc1` [Compound 22, N-(4-methoxyphenyl)-2-oxo-1,2,3,4-tetrahydroquinoline-6-sulfonamide], at hPK, M2 (setting [5]), the AC50 stood at 36 µM. For the same molecule, the activation at 57 µM at hPK, M2 (setting [3]) amounted to 47%.
For the molecule `O=C1CCc2cc(S(=O)(=O)Nc3cccnc3)ccc2N1` [Compound 19, 2-oxo-N-(pyridin-3-yl)-1,2,3,4-tetrahydroquinoline-6-sulfonamide], the concentration at half-maximal activity (AC50) on hPK, M2 (setting [5]) is 23 µM. The activation at 57 µM at hPK, M2 (setting [3]) was 36%.
Take `O=C1CCc2cc(S(=O)(=O)Nc3ccc(Cl)cc3)ccc2N1` [Compound 20, N-(4-chlorophenyl)-2-oxo-1,2,3,4-tetrahydroquinoline-6-sulfonamide]: the AC50 on hPK, M2 (setting [5]) is 3.2 µM. On hPK, M2 (setting [3]), the activation at 57 µM was found to be 94%.
As to `Cc1ccc(NS(=O)(=O)c2ccc3c(c2)CCC(=O)N3)cc1Cl` [Compound 43, N-(3-chloro-4-methylphenyl)-2-oxo-1,2,3,4-tetrahydroquinoline-6-sulfonamide], the AC50 at hPK, M2 (Table 4, read-out: AC50) came out at 0.26 µM. Also, the Emax at hPK, M2 (Table 4) came to 122%.
For `Cc1cc(NS(=O)(=O)c2ccc3c(c2)CCC(=O)N3)ccc1Cl` [Compound 58, N-(4-chloro-3-methylphenyl)-2-oxo-1,2,3,4-tetrahydroquinoline-6-sulfonamide], at hPK, M2 (Table 4, read-out: AC50), the half-maximal activity concentration (AC50) is 0.41 µM. Besides, the Emax at hPK, M2 (Table 4) is 96.5%.
Regarding `Cc1ccc(NS(=O)(=O)c2cc3c(cc2N2CCCCC2)NC(=O)CC3)cc1C` [Compound 34, N-(3,4-dimethylphenyl)-2-oxo-7-(piperidin-1-yl)-1,2,3,4-tetrahydroquinoline-6-sulfonamide], the half-maximal activity concentration (AC50) at hPK, M2 (setting [6]) stood at 15 µM. Besides, the activation at 57 µM at hPK, M2 (setting [4]) is 57%.
In the same order, the values of `Cc1ccc(NS(=O)(=O)c2cc3c(cc2Cl)CCC(=O)N3)cc1C` [Compound 35, 6-chloro-N-(3,4-dimethylphenyl)-2-oxo-1,2,3,4-tetrahydroquinoline-7-sulfonamide] are 0.26 µM and 104%.
For `O=C1CCc2cc(S(=O)(=O)Nc3cccc(F)c3)ccc2N1` [Compound 16, N-(3-fluorophenyl)-2-oxo-1,2,3,4-tetrahydroquinoline-6-sulfonamide], at hPK, M2 (setting [5]), the concentration at half-maximal activity (AC50) is 1.8 µM. In addition, the activation at 57 µM at hPK, M2 (setting [3]) is 93%.
Turning to `Cc1ccc(NS(=O)(=O)c2cc3c(cc2N2CCCC2)NC(=O)CC3)cc1C` [Compound 62, N-(3,4-dimethylphenyl)-2-oxo-7-(pyrrolidin-1-yl)-1,2,3,4-tetrahydroquinoline-6-sulfonamide], on hPK, M2 (Table 4, read-out: AC50), the AC50 was found to be 0.46 µM. The Emax on hPK, M2 (Table 4) amounted to 124%.
